Assay results reported in US5395836A, “8-tricycloalkyl xanthine derivatives” (Kyowa Hakko Kogyo Co., Ltd., priority 1993, dated 1995).

Legend:
[1] = Diuretic Effect; type: in vivo, rat (Wistar); details: for Increase in amount of K+ excreted Δ(%) / Increase in amount of Na+ excreted Δ(%) / Increase in amount of urine Δ(%): control 0
Experimental: The experiment was performed by using Wistar rats (male; 150 to 300 g). The rats were starved for 18 hours prior to the administration of a test compound (n=4 to 5). After test compounds were dissolved in 0.4% methanol, 1% dimethylsulfoxide and 0.01N sodium hydroxide/physiological saline, and administered intravenously, the physiological saline (25 ml/kg) was orally administered. Alternatively, test compounds dissolved in the physiological saline (25 ml/kg) was orally administered to the rats. Urine was collected from the rats during 4 hours after the oral administration, and urine volume was measured by a graduated measuring cylinder, and the electrolytes in the urine (Na^+ and K^+) were determined by flame photometer (775 A manufactured by Hitachi, Ltd.).

[2] = target: T1, adenosine A1 receptor (Rattus norvegicus, UniProt P25099); assay: Adenosine Receptor Antagonizing Activity (Adenosine A1 Receptor Binding Test); details: rat corpus striatum; 3H-CHA 1.1 nM; 25° C., 90 min; Cheng-Prusoff
T1 construct: from tissue; host or cells: rat corpus striatum, washed membrane suspension
T1 sequence (P25099 1-326): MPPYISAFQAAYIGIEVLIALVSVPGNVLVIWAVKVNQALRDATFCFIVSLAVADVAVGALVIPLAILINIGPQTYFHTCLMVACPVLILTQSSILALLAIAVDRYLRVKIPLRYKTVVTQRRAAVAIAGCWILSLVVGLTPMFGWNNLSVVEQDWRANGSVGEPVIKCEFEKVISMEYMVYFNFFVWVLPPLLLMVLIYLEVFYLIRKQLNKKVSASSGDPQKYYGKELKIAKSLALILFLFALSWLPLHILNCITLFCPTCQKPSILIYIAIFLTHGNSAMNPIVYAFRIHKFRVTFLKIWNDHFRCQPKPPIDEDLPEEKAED
Experimental: The test was conducted according to the method of Bruns et al. [Proc. Natl. Acad. Sci. U.S.A., 77., 5547 (1980)] with slight modification.
Corpus striatum of a rat was suspended in ice-cooled 50 mM Tris hydroxymethyl aminomethane hydrochloride (Tris HCl) buffer (pH 7.7) by using Polytron homogenizer (manufactured by Kinematicas Co.). The suspension was centrifuged (50,000×g, 10 minutes), and the precipitate was suspended again in the same amount of 50 mM Tris HCl buffer. The suspension was centrifuged under the same conditions, and the final precipitate was suspended once again in 50 mM Tris HCl buffer to give a tissue concentration of 100 mg (wet weight)/ml. The tissue suspension was allowed to stand in the presence of 0.02 unit/mg tissue of adenosine deaminase (manufacture by Sigma Co.) at 37° C. for 30 minutes. The tissue suspension was centrifuged (50,000×g, 10 minutes) and to the obtained precipitates was added 50 mM Tris HCl buffer to give a tissue concentration of 10 mg (wet weight)/ml.
To 1 ml of the tissue suspension thus prepared, were added 50 μl of cyclohexyladenosine labeled with tritium (^3 H-CHA: 27 Ci/mmol, manufactured by New England Nuclear) (final concentration: 1.1 nM), and 50 μl of a test compound. The resulting mixture was allowed to stand at 25° C. for 90 minutes and then rapidly filtered by suction through a glass fiber filter (GF/C, manufactured by Whatman Co.). The filter was immediately washed three times with 5 ml each of ice-cooled 50 mM Tris HCl buffer, and transferred to a vial, and scintillator (EX-H by Wako Pure Chemical Industries, Ltd.) was added thereto. The radioactivity on the filter was determined with a liquid scintillation counter (manufactured by Packard Instrument Co.).
The inhibition rate (Ki value) of the test compound against the binding of A1 receptors (^3 H-CHA binding) was calculated by the equation of Cheng-Prusoff. [formula]

[3] = Renal-protecting Effect (Glycerol-Induced Renal Failure Model); type: in vivo, rat (Wistar); details: ip, 24 h after glycerol; for Amount of creatinine in blood serum: 4.35 ± 0.23 (compound 3); for Amount of uria nitrogen in blood serum: 139.7 ± 10.2 (compound 3)
Experimental: A renal failure is a state where the renal function is lowered and the homeostasis of a body fluid can be no longer maintained. It is known that an acute renal failure characteristic of uriniferous tubule disorder is caused by subcutaneous or intramuscular injection of glycerol to rats [Can. J. Physiol.
Male Wistar rats were kept deprived of water for 18 hours, and served for the test. A test compound was intraperitoneally administered to the rats (dosage: 0.1 ml/100 g). After 30 minutes, the rats were anesthetized with ether and 50% glycerol was subcutaneously administered (dosage: 0.8 ml/100 g) to the rats, pinching the dorsal skin. Twenty four hours after the administration of glycerol, the rats were anesthetized with ether and 5 ml of blood was collected from the abdominal aorta. The collected blood was allowed to stand for 30 minutes or longer and then centrifuged at 3,000 rpm for 10 minutes, and the amounts of the serum creatinine and the serum urine-nitrogen (UN) were determined by auto analyzer (Olympus AU510) [creatinine test (Jaffe method), UN test (enzyme method); both tests were used in Olympus AU500/550 exclusive reagent […].

[4] = Activity on (R)-PIA-Induced Amnesia (step-through passive avoidance); type: in vivo, mouse (ddY-strain); details: oral, amnesia treatment +, n = 15, amnesia control 51.5 ± 17.0
Experimental: Anti-dementia effect of Compound (I) was determined with (R)-PIA[(R)-N^6 -(2-phenylisopropyl)adenosine]-induced dementia model [Jpn. J. Pharmacol. 52 (Suppl. II), 107P (1990)] As the experimental animal, groups of ddY-strain mice (weighing 20-25 g), each group consisting of fifteen mice, were used. The test was performed with a step-through type passive avoidance apparatus (the bright and dark box).
The bright and dark box was made up of a bright compartment (15×9×11 cm) lighted by 4 W white fluorescent light and a dark compartment (15×14×18 cm). […] In order to give a foot shock, the electric current (0.3 mA: 2 sec) may be passed through the grid floor of the dark compartment.
The compound to be tested was suspended in 0.3% aqueous solution of carboxymethyl cellulose (CMC) and the suspension was orally administered 60 minutes before the acquisition trial (to the normal control group and the amnesia control group which is subjected to the following amnesia treatment, only 0.3% CMC was administered). 30 minutes after the administration of the test compound, 0.3 mg/kg of (R)-PIA was administered intraperitoneally as amnesia-inducing treatment [(R)-PIA was not administered to the normal control group].
The training for acquisition of learning (acquisition trial) was carried out. The rat was introduced into the bright compartment, and after 10 seconds, the guillotine door was opened. The rat in the bright compartment rapidly moved into the dark compartment. As soon as the whole body of the rat entered the dark compartment, the guillotine door was closed and an electric current of 0.3 mA was passed through the grid floor for 2 seconds (foot shock). Immediately after the foot shock, the rat was taken out of the dark compartment.
The test trial for observing the retention and recall of the memory (recall trial) was carried out as follows. Twenty-four hours after the acquisition trial, the rat was placed in the bright compartment and the guillotine door was opened. The length of time before the rat entered the dark compartment (latency) was measured. The latency was measured up to 600 seconds and the latency longer than 600 seconds was recorded as 600 seconds.
The test of significance was carried out by Steel-test.

Ki [2]: 0.23 nM
Compound: CCCn1c(=O)c2[nH]c(C34C[C@H]5CC3C[C@@H](C4)[C@@H]5O)nc2n(CCC)c1=O (relative stereo) [Compound 3, 8-(Trans-9-hydroxy-3-tricyclo[3.3.1.0^3,7]nonyl)-1,3-dipropylxanthine]
Amount of K+ excreted ([1]; iv, 3 μg/kg, n = 5, 4 hours, control 1.47 ± 0.31): 1.24 ± 0.10 mEq/kg | Na+/K+ ([1]; iv, 3 μg/kg, n = 5, 4 hours, control 1.52): 2.99 | Amount of Na+ excreted ([1]; iv, 3 μg/kg, n = 5, 4 hours, control 2.23 ± 0.61): 3.71 mEq/kg | Amount of urine ([1]; iv, 3 μg/kg, n = 5, urine over 4 hours, control 14.5 ± 1.8): 26.4 mL/kg | Increase in amount of K+ excreted Δ(%) ([1]; po, 0.01 mg/kg, 4 hours): 11% | Increase in amount of Na+ excreted Δ(%) ([1]; po, 0.01 mg/kg, 4 hours): 139% | Increase in amount of urine Δ(%) ([1]; po, 0.01 mg/kg, 4 hours): 99% | Na+/K+ ([1]; po, 0.01 mg/kg, 4 hours, control 1.00): 2.16 | Increase in amount of K+ excreted Δ(%) ([1]; po, 0.1 mg/kg, 4 hours): -9% | Increase in amount of Na+ excreted Δ(%) ([1]; po, 0.1 mg/kg, 4 hours): 148% | Increase in amount of urine Δ(%) ([1]; po, 0.1 mg/kg, 4 hours): 105% | Na+/K+ ([1]; po, 0.1 mg/kg, 4 hours, control 1.00): 2.72 | Amount of creatinine in blood serum ([3]; 0.01 mg/kg, control 3.90 ± 0.24 (compounds 6, 7)): 2.00 ± 0.21 mg/dL | Amount of uria nitrogen in blood serum ([3]; 0.01 mg/kg, control 124.9 ± 7.5 (compounds 6, 7)): 69.9 ± 8.4 mg/dL | Amount of creatinine in blood serum ([3]; 0.1 mg/kg, control 4.55 ± 0.24 (compound 5)): 2.32 ± 0.16 mg/dL | Amount of uria nitrogen in blood serum ([3]; 0.1 mg/kg, control 137.2 ± 5.0 (compound 5)): 64.4 ± 4.5 mg/dL | Recall trial average reaction latency ([4]; 0.08 mg/kg): 404.3 ± 43.5 s | Recall trial average reaction latency ([4]; 0.31 mg/kg): 438.8 ± 43.0 s | Recall trial average reaction latency ([4]; 1.25 mg/kg): 445.5 ± 49.5 s | Recall trial average reaction latency ([4]; 5.0 mg/kg): 430.5 ± 43.2 s
